The source of these data is patent publication US20200062719A1, “Application of Imidazopyridine Derivatives in Regenerative Medicine” (University of Heidelberg, priority 2018, published 2020).

Each structure is given as a SMILES string.

Assay [1] concerns hiPSCs. In words: iPSC single cell expansion, viability by MTT assay. It counts as cell-based, human. The note with it: versus absence of O4I3. The protocol:
Since O4I3 induced sustainable expression of Oct4 and Nanog, the inventors questioned if it supports iPSC self-renewal in single cell expansion. Therefore, the viability of iPSCs, after replating Accutase®-dissociated single iPSCs, was tested in the presence or absence of O4I3. Rocki (Y-27632) was used for the first 24 h to increase iPSCs survival. A nearly 300% higher viability in cells treated with O4I3 (1 nM) was observed. Using 50 nM of O4I3 even 400% increase was observed (FIG. 2A). FACS analysis confirmed homologous expression of iPSCs markers, Tra-1-81 and Oct4, for at least 30 passages (FIG. 2B).
iPSC single cell expansion was performed according to a well-established protocol known in the art (Watanabe et al, Nat Biotechnol, 2007, 25(6), 681-6). Briefly, iPSCs were dissociated with Accutase® as single cell suspension and re-seeded in a Geltrex-coated 96-well plate in the presence of Rock inhibitor for the first 24 h in combination with/without O4I3. Cell viability was performed in MTT assay as disclosed elsewhere (Cheng et al, Mol Oncol. 2016 June; 10(6):806-24).
(In general: Formazan colour is commonly taken as a measure of viable cells.)

Assay [2] deals with human fibroblasts. In words: qRT-PCR of reprogramming associated genes in human fibroblasts. It counts as cell-based. Conditions: human fibroblasts, O4I3 0.5 μM. On the procedure:
Analyzing the effects of O4I3 on human fibroblasts, the activation of reprogramming associated genes, including an about 10-fold induction of Oct4, Nanog and Lin28, and an about 100-fold increase of Sox2 and E-Cadherin mRNA levels was detected. In particular, expression of several essential genes for reprogramming is equal to those in pluripotent stem cells, such as Esrrb, FGF2 and Sall4 (FIG. 12).
Quantitative reverse-transcription real-time-PCR was performed using a Light Cycler 96 (Roche, Germany) following the manufacturer's protocol. Briefly, total RNA was isolated from cells using TRIzol (Qiagen, Germany) or NucleoSpin®RNA Plus (Macherey-Nagel, Germany). The same amount of RNA was used to reverse-transcriptional synthesize cDNA by using random primers ProtoScript® First Strand cDNA Synthesis Kit (NEB, Germany). qPCR was performed using the SYBR Green PCR master mix (qPCRBIO SyGreen Mix Lo-Rox, Nippon Genetics, Germany) and the primer pairs indicated below (MWG, Eurofins, Germany). Actin was used as an endogenous control. Data were normalized to the value of untreated cells showing the mean±SD of quadruplicates and are representative of at least three independent experiments.

Assay [3] deals with promoter of Oct4. The assay is described as follows: ChIP-qPCR of H3K4Me3 at the promoter of Oct4 in reprogramming-resistant fibroblasts. Conditions: reprogramming-resistant patient fibroblasts. It counts as cell-based, human. From the text:
The importance of active tri-methylation of histone H3 lysine 4 (H3K4Me3) in promoting transcription factors binding to an ‘open’ chromatin state and thereby initiation of reprogramming is known in the art. In good agreement, the inventors found the abundance of H3K4Me3 in O4I3-treated reprogramming-resistant fibroblasts by immunostaining (FIG. 14) and immunoblotting (FIG. 5B). To directly study if O4I3 facilitated the binding of H3K4Me3 to the promoter of Oct4, a CHIP-qPCR experiment was performed.
In reprogramming-resistant HF4, the level of H3K4Me3 at the promoter of OCT4 was increased by OSKM, but was still nearly 1,000-fold lower than that in PSCs (FIG. 19A). […] However, a clear influence on H3K4 methylation was not observed in the presence of KDM5B-, KDM5C-, or KDM5D-siRNA (FIG. 19A). […] Indeed, the reprogramming efficiency is negatively correlated with the expression of KDM5A in 11 HFs (FIG. 19D). Moreover, KDM5A siRNA increased the global level of H3K4Me3 in a dose-dependent manner (FIG. 19E). Of note, the alternation in the occupation of H3K27Me3 at the promoter of OCT4 was more refractory to chemical inhibition or genetic repression of KDM5s in the inventors' experiments (FIG. 19B). […]
(Quantitative PCR measures a nucleic acid by following its amplification.)

For the compound `Cc1ccc(-c2cn3cc(C)ccc3n2)cc1` [O4I3, 6-methyl-2-(p-tolyl)imidazo[1,2-a]pyridine], the “higher viability of iPSCs in single cell expansion” value in assay [1] (1 nM) is given as about 300%. Besides, in assay [1] (50 nM), the “higher viability of iPSCs in single cell expansion” value turned out to be 400%. Also, in assay [2], the “increase of E-Cadherin mRNA levels” value is on record as “about 100 fold”, the “increase of Sox2 mRNA levels” value is listed as “about 100 fold”, the “induction of Lin28 mRNA” value is “about 10 fold” and the “induction of Nanog mRNA” value is “about 10 fold”. Moreover, in assay [2], the “induction of Oct4 mRNA” value is given as “about 10 fold”. Besides, the “enrichment of H3K4Me3 at the promoter of Oct4” value in assay [3] is listed as “increased enrichment”.
